Reference: patent EP0135657B1, “Antibacterial drugs and/or feed concentrates” (priority 1983, dated 1985)

Key:
[1] = test system: Bordatella bronchiseptica; experiment: Minimum inhibitory concentration in vitro in broth containing phenol red and glucose (Difco); assay type: cell-based; details: for Werte der Mindesthemmkonzentration [MIC-Werte] in mg/l in Bezug auf die Bakterienstämme Bordatella bronchiseptica: single substance, inhibits bacterial growth for 24 hours; for Mindesthemmkonzentration durch Chlorchinaldol in Kombination verringert auf: fraction of the MIC of the substance alone, stated for the bacteria used, for Bordatella bronchiseptica as 1 order of magnitude
Source text: (§1) Diese Feststellung wird durch die folgenden Versuchsergebnisse bestätigt. Die Mindesthemmkoncentrationen von Kombinationen von 2 bis 4 der obigen Verbindungen in erfindungsgemäßen Arzneimitteln beziehungsweise der einzelnen obigen Verbindungen als vergleichssubstanzen wurden in vitro gegen die Bakterienstämme Bordatella bronchiseptica und Pasteurella multocid in einer Phenolrot und Glucose enthaltenden Brühe [Hersteller: Firma Difco] bestimmt. In der folgenden Tabelle sind die Werte der Mindesthemmkonzentration [MIC-Werte] in mg/I, die den Bakterienzuwachs 24. Stunden lang hemmen, zusammengestellt.
(§2) Die Werte der Mindesthemmkonzentration [MIC-Werte] bei den Kombinationen bedeuten, daß die angegebenen Wirkstoffe gemeinsam in den angegebenen Konzentrationen das Wachstum der beiden verschiedenen Bakterienstämme bereits hemmen.

Pasteurella multocida = experiment: as above; assay type: cell-based; details: single substance; inhibits bacterial growth for 24 hours
Source text: as §1, §2

[2] = Blood plasma concentration reached in in vivo investigations; details: Chlorchinaldol alone, very poorly absorbed, therapeutic effect said to need about 15 bis 20 p/ml, read-out: Konzentration im Blutplasma
Source text: (§3) Obwohl jeder der obigen Wirkstoffe eine antibakterielle Wirkung hat, sind verhältnismäßig hohe Dosen von 2-[Methoxycarbonylhydrazono)-methylen]-chinoxalin-1,4-dioxyd {Carbadox®} und 2,4-Diamino-5-[3',4',5'-tri-(methoxy)-benzyl] pyrimidin {Trimethoprim} bei alleiniger Verwendung derselben erforderlich. Was 2-(Methyl)-5,7-di-(chlor)-8-(hydroxy)-chinolin {Chlorchinaldol} betrifft, ist dieses eine bekannte Verbindung mit einer milden baktericiden und fungiciden Wirkung. Sie wird in erster Linie für dermatologische Zwecke, zur Behandlung von Hautinfektionen, verwendet. Obwohl bei 2-(Methyl)-5,7-di-(chlor)-8-(hydroxy)-chinolin (Chlorchinaldol) der in vitro bestimmte Wert der Mindesthemmkonzentration sehr niedrig ist, weshalb eine hohe Wirksamkeit zu erwarten wäre, ist es an sich zum Beispiel gegen Schnupfen unwirksam, wobei bei Untersuchungen in vivo die therapeutisch wirksame Dosis nicht erreicht wurde. 2-(Methyl)-5,7-di-(chlor)-8-(hydroxy)-chinolin (Chlorchinaldol) wird sehr schlecht absorbiert, weshalb im Blutplasma eine Konzentration von höchstens […] erreicht wird. Zur therapeutischen Wirkung wird jedoch eine wesentlich höhere Konzentration, nämlich etwa 15 bis […], gebraucht. Mit 2-(Methyl)-5,7-di-(chlor)-8-(hydroxy)-chinolin {Chlorchinaldol} allein wird also die zur Therapie erforderliche Konzentration im Plasma nicht erreicht. […]

Schnupfen = experiment: Efficacy against Schnupfen in in vivo investigations; details: Chlorchinaldol alone; therapeutically effective dose not reached in vivo
Source text: as §3

[3] = test system: Bordatella bronchiseptica; details: relatively high doses needed; J. Am. Vet. Med. Assoc., 6 [1979], 597-600; cited from earlier work

Row | Structure (SMILES) | Werte der Mindesthemmkonzentration [MIC-Werte] in mg/l in Bezug auf die Bakterienstämme Bordatella bronchiseptica [1] | Werte der Mindesthemmkonzentration [MIC-Werte] in mg/l in Bezug auf die Bakterienstämme Pasteurella multocida (Pasteurella multocida) | Cmax [2] [ng/mL] | Wirksamkeit gegen Schnupfen (Schnupfen) | Mindesthemmkonzentration durch Chlorchinaldol in Kombination verringert auf [1] | Ergebnisse der Behandlung mit Bordatella bronchiseptica infizierter Tiere [3]
1 | Cc1ccc2c(Cl)cc(Cl)c(O)c2n1 [Chlorchinaldol, 2-(Methyl)-5,7-di-(chlor)-8-(hydroxy)-chinolin] | 0,5 mg/l | 0,5 mg/l | ≤ 5000 | unwirksam |  | 
2 | CN(C)[C@@H]1C(O)=C(C(N)=O)C(=O)[C@@]2(O)C(O)=C3C(=O)c4c(O)cccc4[C@@](C)(O)[C@H]3[C@H](O)[C@@H]12 [Oxytetracyclin, 4-Dimethylamino-3,5,6,10,12,12a-hexahydroxy-6-methyl-1,11-dioxo-1,4,4a,5,5a,6,11,12a-octahydro-naphthacen-2-carbonsäureamid] | 5 mg/L | 5 mg/L |  |  | 1/10 | 
3 | COc1cc(Cc2cnc(N)nc2N)cc(OC)c1OC [Trimethoprim, 2,4-Diamino-5-[3',4',5'-tri-(me-thoxy)-benzyl]-pyrimidin] | 50 mg/L | 50 mg/L |  |  | 1/10 | 
4 | COC(=O)NN=Cc1c[n+]([O-])c2ccccc2[n+]1[O-] [Carbadox®, 2-[(Methoxycarbonylhydrazono)-methylen]-chinoxalin-1,4-dioxyd] | 50 mg/L | 10 mg/L |  |  | 1/10 | verhältnismäßig günstige Ergebnisse
